Test results as given in patent US20260070921A1, “COMPOUND, ENDOPLASMIC RETICULUM STRESS INHIBITOR, PHARMACEUTICAL PRODUCT, OPHTHALMIC AGENT, EYE DROPS, COMPOSITION, AND METHOD FOR PRODUCING COMPOUND” (KYOTO UNIVERSITY, priority 2022, published 2026).

Tested on: p62
Assay: Western blotting of sclera after myopia induction, p62
Assay type: in vivo, mice
Settings: eye drop 3 weeks
Description: A −30 diopter (unit of refractive index: D) lens was attached to the right eye of 3-week-old male C57BL6J mice, while only a lens frame was attached to the left eye, which served as a control eye. The lenses were worn for three weeks, and the refractive index and axial length of eyes were measured before and after attachment of the lenses. Concurrently with myopia induction, an eye drop, which is a 0.025 solution of X441A in PBS, was administered by instillation once a day every day. PBS was administered by eye drop to the control group (group administered with PBS). After 3 weeks of myopia induction and eye drop administration, the eyeballs were enucleated from the mice, and the sclera was isolated. Then, western blotting was performed to analyze the expression levels of p62, Atg5, and Atg12 in each group.
After 3 weeks of myopia induction and eye drop administration, the eyeballs were enucleated from the mice, and the sclera was isolated. Then, western blotting was performed to analyze the expression levels of p62, Atg5, and Atg12 in the group administered with X441A and the group administered with PBS.

How did the “Expression level of p62” value turn out when NS(=O)(=O)c1ccc(Nc2ccn3c(n2)nc(=O)c2sc4cc(F)ccc4c23)cc1 [compound 1] was run?
Its value is “decreased”.
